The assay deals with Ovarian TICs (Ovarian 2393A). The assay can be described thus: Ovarian tumor-initiating cell growth inhibition, Alamar Blue assay. In kind it is cell-based. The note with it: 144 h, read-out: Tumor Initiating Cell GI50 Range Ovarian 2393A. An excerpt: Materials and Methods: Non-tissue or tissure cultured treated T-75 flask and 96-well plates were purchased from VWR. Vitamin B-27 supplement, MEM NEAA (minimum essential medium non-essential amino acids), sodium pyruvate, L-glutamine, N2 supplement, penicillin-streptomycin and fungizone/amphotericin B were obtained from Invitrogen. Lipid mixture, heparin and EGF were purchased from Sigma; bFGF from BD Biosciences. Tumor Initiating Cells (TICs) from colon were routinely maintained using non-tissue cultured treated T-75 flasks in DMEM:F12 medium containing 0.2×B-27 supplement, 4 ug/ml heparin, 1×MEM NEAA, 1×sodium pyruvate, 1 mM glutamine, 10 pg/ul bFGF, 20 pg/ul EGF, 1× N2 supplement, lipid mixture, penicillin-streptomycin and fungizone/amphotericin B. Ovarian TICs were routinely maintained using tissue cultured treated T-75 flasks in DMEM:F12 medium containing 1×B-27 supplement, 4 ug/ml heparin, 20 pg/ul bFGF, 20 pg/ul EGF and penicillin-streptomycin. Assay Protocol: Compounds described herein were dissolved in DMSO and further diluted in cell culture medium for GI50 determination. […] Cell viability was assessed by Alamar Blue assay: 10 ul of Alamar Blue was added into each well. After 4 hours incubation at 37° C., fluorescence was recorded at excitation 544 and emission 590. GI50 (Growth inhibition) was calculated using GraphPad Prism 4.0 software. […]
(Resazurin is reduced to fluorescent resorufin, in cell work by metabolically active cells.)

Structures can show the parent of a compound that is named as a salt.

As to `Cc1cc(-c2cnn3c(NC[C@H]4C[C@@](C)(O)C4)cc(Oc4cccnc4)nc23)ccc1C(=O)NC1CC1` [Example A4, N-cyclopropyl-4-(7-((((1s,3s)-3-hydroxy-3-methylcyclobutyl)methyl)amino-5-(pyridin-3-yloxy)pyrazolo[1,5-a]pyrimidin-3-yl)-2-methylbenzamide hydrochloride and itsfreebase], the GI50 is less than 100 nM.

In general, GI50 refers to the concentration at which growth is held to half of that of the control.

Source of the values: patent publication US9657025B2, “Pyrazolopyrimidine compounds” (University Health Network, priority 2013, dated 2017).
